Experiments:
Assay in all cases: Kinase profiling
Assay type in all cases: biochemical
CHK1 = molecular target: T1, CHK1 (Homo sapiens, UniProt O14757)
T1 construct: purchased ProQinase (Freiburg, Germany)
T1 sequence (O14757 1-476): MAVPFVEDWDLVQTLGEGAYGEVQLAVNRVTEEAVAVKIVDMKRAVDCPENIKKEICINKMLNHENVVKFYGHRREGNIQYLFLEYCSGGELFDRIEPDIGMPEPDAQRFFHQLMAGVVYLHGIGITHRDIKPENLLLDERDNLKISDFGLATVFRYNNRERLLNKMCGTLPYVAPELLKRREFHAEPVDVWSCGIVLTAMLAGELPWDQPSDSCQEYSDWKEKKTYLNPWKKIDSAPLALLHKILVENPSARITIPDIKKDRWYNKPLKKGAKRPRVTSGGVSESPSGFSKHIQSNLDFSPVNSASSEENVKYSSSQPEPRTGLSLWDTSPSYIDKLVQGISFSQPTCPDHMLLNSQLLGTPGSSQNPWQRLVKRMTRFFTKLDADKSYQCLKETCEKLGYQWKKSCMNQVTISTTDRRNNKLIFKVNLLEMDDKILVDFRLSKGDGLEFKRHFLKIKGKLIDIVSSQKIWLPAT
Procedure: (§1) The analysis was performed by ProQinase (Freiburg, Germany).

MEK1 = molecular target: T2, MEK1 (Homo sapiens, UniProt Q02750)
T2 construct: purchased ProQinase (Freiburg, Germany)
T2 sequence (Q02750 whole entry): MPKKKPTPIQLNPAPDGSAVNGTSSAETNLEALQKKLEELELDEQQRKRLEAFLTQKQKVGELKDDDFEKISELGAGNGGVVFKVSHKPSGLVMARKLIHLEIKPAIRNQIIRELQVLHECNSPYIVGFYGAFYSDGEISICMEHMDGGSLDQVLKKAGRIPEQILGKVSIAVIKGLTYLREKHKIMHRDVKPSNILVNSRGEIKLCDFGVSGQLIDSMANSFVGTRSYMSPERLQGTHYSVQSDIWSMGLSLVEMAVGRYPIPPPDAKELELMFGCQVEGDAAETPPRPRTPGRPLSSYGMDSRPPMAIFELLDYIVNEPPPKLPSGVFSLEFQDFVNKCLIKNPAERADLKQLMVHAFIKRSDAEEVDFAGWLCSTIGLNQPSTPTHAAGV
Procedure: as §1

EGFR = molecular target: T3, EGFR (Homo sapiens, UniProt P00533)
T3 construct: purchased ProQinase (Freiburg, Germany)
Procedure: as §1

LYN = molecular target: T4, LYN (Homo sapiens, UniProt P07948)
T4 construct: purchased ProQinase (Freiburg, Germany)
T4 sequence (P07948 whole entry): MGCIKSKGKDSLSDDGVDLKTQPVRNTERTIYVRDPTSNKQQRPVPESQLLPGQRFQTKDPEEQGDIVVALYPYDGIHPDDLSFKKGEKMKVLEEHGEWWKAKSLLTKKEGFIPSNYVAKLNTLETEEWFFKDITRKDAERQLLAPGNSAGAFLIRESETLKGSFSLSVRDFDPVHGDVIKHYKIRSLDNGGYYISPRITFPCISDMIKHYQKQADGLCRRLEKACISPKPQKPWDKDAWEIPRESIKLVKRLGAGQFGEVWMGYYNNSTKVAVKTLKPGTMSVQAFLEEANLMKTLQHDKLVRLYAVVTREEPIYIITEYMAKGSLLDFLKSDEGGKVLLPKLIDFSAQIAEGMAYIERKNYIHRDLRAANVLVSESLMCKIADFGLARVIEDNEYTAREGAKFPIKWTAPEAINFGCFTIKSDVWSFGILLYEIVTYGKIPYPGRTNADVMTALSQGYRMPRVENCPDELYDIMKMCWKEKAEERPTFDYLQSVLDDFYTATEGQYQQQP
Procedure: as §1

S6Kbeta = molecular target: T5, S6Kbeta (Homo sapiens, UniProt Q9UBS0)
T5 construct: purchased ProQinase (Freiburg, Germany)
T5 sequence (Q9UBS0 whole entry): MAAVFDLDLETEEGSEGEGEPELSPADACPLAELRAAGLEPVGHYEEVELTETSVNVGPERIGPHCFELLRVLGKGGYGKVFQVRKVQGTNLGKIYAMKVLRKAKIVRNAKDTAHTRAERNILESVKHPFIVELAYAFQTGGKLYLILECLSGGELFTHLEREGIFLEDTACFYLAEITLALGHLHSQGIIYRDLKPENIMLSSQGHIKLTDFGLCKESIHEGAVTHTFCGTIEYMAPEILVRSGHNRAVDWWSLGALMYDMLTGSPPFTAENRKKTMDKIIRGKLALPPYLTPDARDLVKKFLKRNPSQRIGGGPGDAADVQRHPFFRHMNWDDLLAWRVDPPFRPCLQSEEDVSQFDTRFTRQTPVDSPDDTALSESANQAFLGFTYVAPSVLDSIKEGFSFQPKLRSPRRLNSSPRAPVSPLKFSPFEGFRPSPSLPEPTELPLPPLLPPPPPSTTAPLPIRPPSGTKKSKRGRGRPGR
Procedure: as §1

EPHA7 = molecular target: T6, EPHA7 (Homo sapiens, UniProt Q15375)
T6 construct: purchased ProQinase (Freiburg, Germany)
T6 sequence (Q15375 28-998): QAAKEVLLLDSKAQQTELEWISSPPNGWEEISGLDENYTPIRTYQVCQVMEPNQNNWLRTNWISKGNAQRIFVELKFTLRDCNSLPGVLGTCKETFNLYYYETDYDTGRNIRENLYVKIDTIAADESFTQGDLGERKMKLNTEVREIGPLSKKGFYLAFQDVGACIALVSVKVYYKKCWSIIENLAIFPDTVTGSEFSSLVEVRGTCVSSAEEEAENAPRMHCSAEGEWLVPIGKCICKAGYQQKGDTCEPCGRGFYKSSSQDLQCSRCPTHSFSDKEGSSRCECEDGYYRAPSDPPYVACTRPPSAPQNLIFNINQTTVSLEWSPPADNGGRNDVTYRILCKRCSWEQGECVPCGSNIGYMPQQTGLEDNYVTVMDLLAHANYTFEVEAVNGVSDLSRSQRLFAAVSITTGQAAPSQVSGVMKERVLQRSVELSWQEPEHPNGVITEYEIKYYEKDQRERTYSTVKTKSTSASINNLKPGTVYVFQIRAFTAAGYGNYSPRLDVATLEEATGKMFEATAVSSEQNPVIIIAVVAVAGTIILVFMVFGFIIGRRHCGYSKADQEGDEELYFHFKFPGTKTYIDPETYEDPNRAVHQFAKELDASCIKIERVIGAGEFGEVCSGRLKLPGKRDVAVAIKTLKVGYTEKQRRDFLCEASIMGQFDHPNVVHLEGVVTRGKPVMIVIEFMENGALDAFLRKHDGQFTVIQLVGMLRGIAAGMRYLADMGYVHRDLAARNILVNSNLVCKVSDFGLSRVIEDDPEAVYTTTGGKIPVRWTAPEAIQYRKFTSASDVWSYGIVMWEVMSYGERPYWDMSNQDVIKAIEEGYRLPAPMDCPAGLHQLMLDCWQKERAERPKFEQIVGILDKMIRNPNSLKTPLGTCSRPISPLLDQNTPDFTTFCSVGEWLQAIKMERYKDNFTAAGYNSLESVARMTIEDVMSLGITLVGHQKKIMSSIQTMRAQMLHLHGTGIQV
Procedure: as §1

CK1gamma2 = molecular target: T7, CK1gamma2 (Homo sapiens, UniProt P78368)
T7 construct: purchased ProQinase (Freiburg, Germany)
T7 sequence (P78368 whole entry): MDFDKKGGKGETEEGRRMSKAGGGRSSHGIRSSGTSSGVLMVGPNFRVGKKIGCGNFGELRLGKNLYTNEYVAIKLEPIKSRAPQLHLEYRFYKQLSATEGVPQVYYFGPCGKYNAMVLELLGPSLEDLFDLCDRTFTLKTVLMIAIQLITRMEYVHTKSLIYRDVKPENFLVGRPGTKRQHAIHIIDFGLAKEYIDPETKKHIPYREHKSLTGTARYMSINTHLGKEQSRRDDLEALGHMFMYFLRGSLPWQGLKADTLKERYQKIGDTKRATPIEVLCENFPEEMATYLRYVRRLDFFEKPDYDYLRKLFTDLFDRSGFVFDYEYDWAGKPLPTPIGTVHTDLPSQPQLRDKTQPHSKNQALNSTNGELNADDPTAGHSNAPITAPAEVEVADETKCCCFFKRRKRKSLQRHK
Procedure: as §1

PKCiota = molecular target: T8, PKCiota (Homo sapiens, UniProt P41743)
T8 construct: purchased ProQinase (Freiburg, Germany)
T8 sequence (P41743 1-596): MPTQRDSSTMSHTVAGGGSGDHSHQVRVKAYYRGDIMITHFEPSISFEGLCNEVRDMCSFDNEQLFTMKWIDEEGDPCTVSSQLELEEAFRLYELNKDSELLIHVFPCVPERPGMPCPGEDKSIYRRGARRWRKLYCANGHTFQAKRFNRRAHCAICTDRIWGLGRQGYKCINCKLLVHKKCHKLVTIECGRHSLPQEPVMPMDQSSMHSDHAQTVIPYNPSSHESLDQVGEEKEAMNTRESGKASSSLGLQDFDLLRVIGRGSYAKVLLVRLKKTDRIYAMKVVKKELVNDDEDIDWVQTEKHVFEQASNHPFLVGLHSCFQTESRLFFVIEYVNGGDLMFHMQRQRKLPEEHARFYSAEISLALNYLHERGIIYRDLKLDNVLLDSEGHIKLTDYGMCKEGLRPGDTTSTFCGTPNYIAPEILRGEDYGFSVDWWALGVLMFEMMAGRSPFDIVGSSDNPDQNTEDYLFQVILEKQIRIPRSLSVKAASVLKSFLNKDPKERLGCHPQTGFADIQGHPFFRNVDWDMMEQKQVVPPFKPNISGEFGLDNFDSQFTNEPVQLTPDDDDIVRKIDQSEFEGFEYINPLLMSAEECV
Procedure: as §1

LTK = molecular target: T9, LTK (Homo sapiens, UniProt P29376)
T9 construct: purchased ProQinase (Freiburg, Germany)
Procedure: as §1

TGFBR2 = molecular target: T10, TGFBR2 (Homo sapiens, UniProt P37173)
T10 construct: purchased ProQinase (Freiburg, Germany)
Procedure: as §1

CDK20/CycH = molecular target: T11, CDK20/CycH (Homo sapiens, UniProt Q8IZL9)
T11 construct: purchased ProQinase (Freiburg, Germany)
T11 sequence (Q8IZL9 whole entry): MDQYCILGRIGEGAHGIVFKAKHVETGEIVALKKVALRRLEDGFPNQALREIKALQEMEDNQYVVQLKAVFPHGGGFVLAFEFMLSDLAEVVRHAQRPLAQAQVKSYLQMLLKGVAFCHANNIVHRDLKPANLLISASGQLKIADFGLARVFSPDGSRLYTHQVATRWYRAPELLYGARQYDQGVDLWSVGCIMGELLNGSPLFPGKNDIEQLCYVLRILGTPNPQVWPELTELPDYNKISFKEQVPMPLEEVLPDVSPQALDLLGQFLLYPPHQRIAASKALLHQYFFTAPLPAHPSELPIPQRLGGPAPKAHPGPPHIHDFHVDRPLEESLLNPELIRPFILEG
T11 sequence (P51946 whole entry partner): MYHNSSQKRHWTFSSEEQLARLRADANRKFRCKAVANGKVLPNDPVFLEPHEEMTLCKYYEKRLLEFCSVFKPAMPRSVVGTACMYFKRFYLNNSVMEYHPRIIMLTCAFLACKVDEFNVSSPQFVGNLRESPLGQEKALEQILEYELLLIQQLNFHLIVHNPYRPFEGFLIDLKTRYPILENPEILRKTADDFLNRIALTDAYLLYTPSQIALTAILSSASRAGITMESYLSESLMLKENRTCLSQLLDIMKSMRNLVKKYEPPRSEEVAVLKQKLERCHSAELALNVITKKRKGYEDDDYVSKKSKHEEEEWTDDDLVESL
Procedure: as §1

CDK4/CycD1 = molecular target: T12, CDK4/CycD1 (Homo sapiens, UniProt P11802)
T12 construct: purchased ProQinase (Freiburg, Germany)
T12 sequence (P11802 whole entry): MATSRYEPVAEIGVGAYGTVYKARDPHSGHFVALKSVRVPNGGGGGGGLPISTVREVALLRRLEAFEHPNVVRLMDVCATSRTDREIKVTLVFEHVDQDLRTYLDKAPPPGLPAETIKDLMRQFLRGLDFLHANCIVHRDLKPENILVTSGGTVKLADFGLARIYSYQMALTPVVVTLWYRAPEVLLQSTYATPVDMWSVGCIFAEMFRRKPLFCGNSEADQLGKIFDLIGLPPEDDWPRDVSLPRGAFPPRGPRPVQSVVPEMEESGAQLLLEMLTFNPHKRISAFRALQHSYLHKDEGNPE
T12 sequence (P24385 whole entry partner): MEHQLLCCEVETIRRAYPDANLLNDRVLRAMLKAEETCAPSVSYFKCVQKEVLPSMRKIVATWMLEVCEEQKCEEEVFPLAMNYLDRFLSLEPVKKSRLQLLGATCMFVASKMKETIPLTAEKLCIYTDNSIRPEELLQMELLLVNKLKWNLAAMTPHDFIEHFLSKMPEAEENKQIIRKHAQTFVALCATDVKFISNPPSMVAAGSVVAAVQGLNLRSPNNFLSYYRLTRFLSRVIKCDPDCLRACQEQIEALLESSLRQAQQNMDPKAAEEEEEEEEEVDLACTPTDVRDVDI
Procedure: as §1

TEC = molecular target: T13, TEC (Homo sapiens, UniProt P42680)
T13 construct: purchased ProQinase (Freiburg, Germany)
T13 sequence (P42680 1-631): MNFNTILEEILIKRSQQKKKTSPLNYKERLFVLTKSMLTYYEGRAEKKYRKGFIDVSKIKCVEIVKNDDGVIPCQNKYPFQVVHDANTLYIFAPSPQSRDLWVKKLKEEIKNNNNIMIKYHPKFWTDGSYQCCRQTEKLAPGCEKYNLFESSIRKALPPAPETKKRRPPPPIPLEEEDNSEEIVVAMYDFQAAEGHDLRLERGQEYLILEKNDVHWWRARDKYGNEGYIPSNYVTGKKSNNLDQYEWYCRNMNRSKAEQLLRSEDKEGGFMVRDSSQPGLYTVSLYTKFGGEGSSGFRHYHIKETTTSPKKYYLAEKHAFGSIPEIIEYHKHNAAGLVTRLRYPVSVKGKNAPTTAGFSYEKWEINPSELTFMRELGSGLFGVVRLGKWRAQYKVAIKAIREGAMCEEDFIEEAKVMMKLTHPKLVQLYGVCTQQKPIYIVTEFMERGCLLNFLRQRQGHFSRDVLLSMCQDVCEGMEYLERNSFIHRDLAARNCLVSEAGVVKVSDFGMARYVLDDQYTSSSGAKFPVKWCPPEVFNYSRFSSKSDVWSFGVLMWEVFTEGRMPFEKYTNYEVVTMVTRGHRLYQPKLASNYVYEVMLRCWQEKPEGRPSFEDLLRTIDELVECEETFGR
Procedure: as §1

CDK5/p35NCK = molecular target: T14, CDK5/p35NCK (Homo sapiens, UniProt Q00535)
T14 construct: purchased ProQinase (Freiburg, Germany)
Procedure: as §1

FGFR4 = molecular target: T15, FGFR4 (Homo sapiens, UniProt P22455)
T15 construct: purchased ProQinase (Freiburg, Germany)
T15 sequence (P22455 22-802): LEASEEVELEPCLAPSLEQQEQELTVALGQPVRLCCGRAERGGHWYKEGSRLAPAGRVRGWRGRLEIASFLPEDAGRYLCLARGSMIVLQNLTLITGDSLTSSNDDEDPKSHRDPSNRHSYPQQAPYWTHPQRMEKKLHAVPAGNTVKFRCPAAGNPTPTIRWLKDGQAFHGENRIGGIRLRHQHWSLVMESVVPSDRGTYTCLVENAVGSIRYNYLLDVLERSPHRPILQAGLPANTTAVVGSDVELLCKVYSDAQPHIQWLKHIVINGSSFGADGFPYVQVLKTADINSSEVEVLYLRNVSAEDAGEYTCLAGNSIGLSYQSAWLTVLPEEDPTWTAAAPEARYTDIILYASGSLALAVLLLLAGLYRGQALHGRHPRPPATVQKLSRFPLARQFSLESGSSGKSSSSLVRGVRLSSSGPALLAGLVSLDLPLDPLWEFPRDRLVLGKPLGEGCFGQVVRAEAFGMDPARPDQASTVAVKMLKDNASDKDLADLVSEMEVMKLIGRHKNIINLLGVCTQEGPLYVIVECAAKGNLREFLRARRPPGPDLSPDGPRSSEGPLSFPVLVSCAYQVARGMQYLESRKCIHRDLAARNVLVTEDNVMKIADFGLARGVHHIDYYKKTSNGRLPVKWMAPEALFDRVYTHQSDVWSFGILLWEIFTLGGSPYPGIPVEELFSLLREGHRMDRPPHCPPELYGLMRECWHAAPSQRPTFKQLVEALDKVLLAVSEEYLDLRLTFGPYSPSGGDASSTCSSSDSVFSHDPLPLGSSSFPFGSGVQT
Procedure: as §1

SMILES: O=C(Cc1ccccc1)Nc1ccc(F)c(Nc2ccc3c(c2)CCCCC3=O)c1 [Compound 100]
- Residual activity (CHK1; 1.0E-05 M): 91 % of control
- Residual activity (CHK1; 1.0E-06 M): 91 % of control
- Residual activity (MEK1; 1.0E-05 M): 114 % of control
- Residual activity (MEK1; 1.0E-06 M): 112 % of control
- Residual activity (EGFR; 1.0E-05 M): 99 % of control
- Residual activity (EGFR; 1.0E-06 M): 100 % of control
- Residual activity (LYN; 1.0E-05 M): 95 % of control
- Residual activity (LYN; 1.0E-06 M): 96 % of control
- Residual activity (S6Kbeta; 1.0E-05 M): 85 % of control
- Residual activity (S6Kbeta; 1.0E-06 M): 96 % of control
- Residual activity (EPHA7; 1.0E-05 M): 101 % of control
- Residual activity (EPHA7; 1.0E-06 M): 103 % of control
- Residual activity (CK1gamma2; 1.0E-05 M): 114 % of control
- Residual activity (CK1gamma2; 1.0E-06 M): 104 % of control
- Residual activity (PKCiota; 1.0E-05 M): 71 % of control
- Residual activity (PKCiota; 1.0E-06 M): 94 % of control
- Residual activity (LTK; 1.0E-05 M): 50 % of control
- Residual activity (LTK; 1.0E-06 M): 115 % of control
- Residual activity (TGFBR2; 1.0E-05 M): 74 % of control
- Residual activity (TGFBR2; 1.0E-06 M): 79 % of control
- Residual activity (CDK20/CycH; 1.0E-05 M): 98 % of control
- Residual activity (CDK20/CycH; 1.0E-06 M): 103 % of control
- Residual activity (CDK4/CycD1; 1.0E-05 M): 94 % of control
- Residual activity (CDK4/CycD1; 1.0E-06 M): 104 % of control
- Residual activity (TEC; 1.0E-05 M): 69 % of control
- Residual activity (TEC; 1.0E-06 M): 88 % of control
- Residual activity (CDK5/p35NCK; 1.0E-05 M): 93 % of control
- Residual activity (CDK5/p35NCK; 1.0E-06 M): 105 % of control
- Residual activity (FGFR4; 1.0E-05 M): 67 % of control
- Residual activity (FGFR4; 1.0E-06 M): 96 % of control

SMILES: O=C(Nc1ccc(F)c(Nc2ccc3c(c2)CCCCC3=O)c1)c1cccc(F)c1 [Compound 109]
- Residual activity (CHK1; 1.0E-05 M): 90 % of control
- Residual activity (CHK1; 1.0E-06 M): 88 % of control
- Residual activity (MEK1; 1.0E-05 M): 109 % of control
- Residual activity (MEK1; 1.0E-06 M): 109 % of control
- Residual activity (EGFR; 1.0E-05 M): 93 % of control
- Residual activity (EGFR; 1.0E-06 M): 105 % of control
- Residual activity (LYN; 1.0E-05 M): 88 % of control
- Residual activity (LYN; 1.0E-06 M): 104 % of control
- Residual activity (S6Kbeta; 1.0E-05 M): 96 % of control
- Residual activity (S6Kbeta; 1.0E-06 M): 102 % of control
- Residual activity (EPHA7; 1.0E-05 M): 96 % of control
- Residual activity (EPHA7; 1.0E-06 M): 85 % of control
- Residual activity (CK1gamma2; 1.0E-05 M): 70 % of control
- Residual activity (CK1gamma2; 1.0E-06 M): 84 % of control
- Residual activity (PKCiota; 1.0E-05 M): 77 % of control
- Residual activity (PKCiota; 1.0E-06 M): 82 % of control
- Residual activity (LTK; 1.0E-05 M): 77 % of control
- Residual activity (LTK; 1.0E-06 M): 95 % of control
- Residual activity (TGFBR2; 1.0E-05 M): 79 % of control
- Residual activity (TGFBR2; 1.0E-06 M): 82 % of control
- Residual activity (CDK20/CycH; 1.0E-05 M): 121 % of control
- Residual activity (CDK20/CycH; 1.0E-06 M): 110 % of control
- Residual activity (CDK4/CycD1; 1.0E-05 M): 108 % of control
- Residual activity (CDK4/CycD1; 1.0E-06 M): 93 % of control
- Residual activity (TEC; 1.0E-05 M): 80 % of control
- Residual activity (TEC; 1.0E-06 M): 94 % of control
- Residual activity (CDK5/p35NCK; 1.0E-05 M): 101 % of control
- Residual activity (CDK5/p35NCK; 1.0E-06 M): 95 % of control
- Residual activity (FGFR4; 1.0E-05 M): 79 % of control
- Residual activity (FGFR4; 1.0E-06 M): 90 % of control

Source: article PMC9030254, “Target Hopping from Protein Kinases to PXR: Identification of Small-Molecule Protein Kinase Inhibitors as Selective Modulators of Pregnane X Receptor from TüKIC Library” (Cells, 2022)
